{"source": "patent US20250009856A1", "about": "“METHODS FOR TREATING RESPIRATORY DISEASES” (MUCPharm Pty Ltd, priority 2021, published 2025)", "key": {"[1]": {"assay": "Particle size distribution of aerosols by laser diffraction, Pari LC Sprint nebulizer", "type": "physicochemical", "conditions": "mean", "method": "The particle size distributions (PSD) of 5 formulations containing bromelain and acetylcysteine at different concentrations were determined. The formulations were aerosolized using a PARI TurboBOY SX compressor, combined with the Pari LC Sprint nebulizer (PARI GmbH, USA). The nebulizer was connected to a USP induction port (throat), and particle size was measured at flow rate of 15 L/min in Spraytec particle sizer (Malvern Instruments, Malvern, UK). Measurements were performed in triplicate. Results are expressed as D10, D50 and D90, indicating the particle diameter at 10, 50 and 90% in the cumulative distribution.\nThe formulations were prepared in saline (0.9% w/v) and kept at −20° C. prior to analysis. The formulations tested were: • 1. Control: Saline (sodium chloride 0.9% w/v) • 2. Low Concentration of Ac (8 mg/mL) • 3. High Concentration of Ac (60 mg/mL) • 4. Brom at 50 μg/mL • 5. Combination 1: Low Ac (8 mg/mL)+Brom (50 μg/mL) • 6. Combination 2: High Ac (60 mg/mL)+Brom (50 μg/mL)"}, "[2]": {"system": "chemokines, cytokines and growth factors in tracheal aspirate samples from COVID-19 patients", "assay": "Immunological inflammatory mediators, 27-plex bead assay", "parameters": "species or system human", "conditions": "BromAc 125 and 250 mcg + 2% NAC, or NAC alone at 2%; 60 minutes, 37° C.", "method": "In order to verify the effect of BromAc in the inflammatory mediators present in tracheal aspirate (TA) samples from COVID-19 patients. TA specimens were treated with 125 to 250 μg of Bromelain and 2% NAC (BromAc) using the MAD device as described previously. Treated and untreated TA specimens were incubated at 37° C. in 6 well plates for 1 hour. After that, TA specimen aliquots were initially cleared by centrifugation at 800×g for 10 min, at room temperature and TA supernatants were transferred to fresh 2 mL microtubes. Samples were diluted 1:10 and incubated with magnetic beads covered with monoclonal antibodies specific to several immunological mediators, such as: chemokines (CXCL8, CCL11, CCL3, CCL4, CCL2, and CXCL10), inflammatory cytokines (IL-1b, IL-6, TNF-α, IL-12, IFN-g, IL-15 and IL-17), regulatory cytokines (IL-1Ra, IL-9. IL-10) and growth factors (FGF-basic, PDGF, VEGF, G-CSF. GM-CSF, IL-2 and IL-7). Experiments were carried out according to the manufacturer's instructions using the Procarta Human Cytokine 27-plex Assay, (Invitrogen, CA, USA). The immunological mediators were measured in TA samples and the concentrations of each sample was determined according to standard curves run for each molecule tested using a fifth parameter logistic fit analysis. The results were expressed as pg/mL for all mediators tested. […]"}, "[3]": {"assay": "Bromelain and acetylcysteine in plasma (ELISA), rabbit tolerability study", "conditions": "4, 6, 24 and 48 h post-inhalation of 0.1 or 0.25 mg bromelain alone or in combination with acetylcysteine"}, "[4]": {"assay": "Pipette flow speed after aerosol treatment", "parameters": "species or system human", "conditions": "SS; for Pipette flow speed (€), After: before 0.0137 ± 0.005", "method": "Six grams of soft PMP mucin was homogenised using a shredder with phosphate buffer saline (PBS) (3.0 ml) with sonification and vortexed until a homogenous mixture was formed, with incubation at 37° C. to remove air bubbles and after which viscosity was adjusted (further dilutions with PBS). The pH was adjusted to 7.0 using either 1.0 M NaOH or 0.1 N Hydrochloric acid. Using a 0.5 ml glass pipette fixed at an angle of 60°, 0.5 ml of sample at 25° C. (ambient room temperature) was sucked up the pipette and the time taken to empty 0.3 ml of the sample was timed in sec. Pipette flow time (€) was calculated as follows: € (ml/sec)=0.3 ml/Time to empty 0.3 ml (sec) A similar investigation as above was carried out to determine a comparative dynamic viscosity and pipette flow time for PMP mucin simulated sputa (SS). A similar treatment as in the experiment described above for NAC was carried out using Bromelain (125 and 250 μg/ml) in PBS (pH.7.0) along with control using PBS (pH.7.0). Both dynamic viscosity and pipette flow time was measured as outlined earlier for both artificial and PMP simulated sputa models. Using a combination of NAC (20 mg/ml) with either 125 or 250 μg/ml Bromelain in PBS (pH.7.0), a similar investigation was carried out as outlined earlier and measurements were made for both artificial and simulated sputa models. D=(TREATED)−(UNTREATED/(UNTREATED)×100."}, "[5]": {"assay": "Sputum flow speed after mixing with BromAc, DNase and combinations", "conditions": "agent without DNASE: BR(250 ug/ml), NAC(20 mg/ml) or both; 1 hour, 37 deg C; Cont(PBS) 0.0436", "method": "Artificial sputa was prepared following methodology with ingredients as in earlier experiments. To 1.5 ml of artificial sputa in a vial was added 0.5 ml of reagent containing the required bromelain, NAC, DNase and their combinations. Control vials included 0.5 ml of PBS only. The mixture was vortex mixed and incubated in a shaker water bath at 37 deg C. At the end of 1 hour, the samples were retrieved, vortex mixed and equilibrated to ambient room temperature before measuring dynamic viscosity and pipette flow.\nDynamic viscosity was determined using the capillary tube method as in earlier experiments, whilst the pipette flow was evaluated using a 0.5 ml pipette inclined at 60 deg angle. The pipette flow was calculated as shown below.\nPipette flow (€)=0.45 ml sputa/time to empty (sec)."}}, "note": "Where “and” joins values, the source holds several entries; their conditions need not be identical. Identical values can stand only once."}
{"compound": "CC(=O)N[C@@H](CS)C(=O)O", "note": "[NAC, N-acetylcysteine]", "values": [{"measurement": "D10", "setting": "[1]; NAC 8 mg/mL in saline", "result": 1.19, "unit": "µm"}, {"measurement": "D50", "setting": "[1]; NAC 8 mg/mL in saline", "result": 3.26, "unit": "μm"}, {"measurement": "D90", "setting": "[1]; NAC 8 mg/mL in saline", "result": 8.23, "unit": "c"}, {"measurement": "D10", "setting": "[1]; NAC 60 mg/mL in saline", "result": 1.12, "unit": "µm"}, {"measurement": "D50", "setting": "[1]; NAC 60 mg/mL in saline", "result": 2.87, "unit": "b μm"}, {"measurement": "D90", "setting": "[1]; NAC 60 mg/mL in saline", "result": 7.47, "unit": "µm"}, {"measurement": "IL-9 level, compared to untreated", "setting": "[2]", "result": "the same effect was observed"}, {"measurement": "detection in plasma (ELISA)", "setting": "[3]", "result": "not detected"}, {"measurement": "D (%), increase of pipette flow speed (€)", "setting": "[4]; aerosol NAC 10 mg/ml", "result": "34% and 34 ↑ %"}, {"measurement": "Pipette flow speed (€), After", "setting": "[4]; aerosol NAC 10 mg/ml", "result": "0.0183 ± 0.001", "unit": "mL/s"}, {"measurement": "D (%), increase of pipette flow speed (€)", "setting": "[4]; aerosol NAC 20 mg/ml", "result": "46% and 46 ↑ %"}, {"measurement": "Pipette flow speed (€), After", "setting": "[4]; aerosol NAC 20 mg/ml", "result": "0.02 ± 0.002", "unit": "mL/s"}, {"measurement": "Sputum flow speed (€)", "setting": "[5]", "result": 0.05, "unit": "mL/s"}]}
